Row | Structure (SMILES) | melting point [°C]
1 | CCC1(Cl)C(=O)c2c(cc(OCC(=O)O)c(Cl)c2Cl)C1C (centres undefined) | 208 to 210
2 | Cc1cc2c(cc1Cl)N(C(=O)Nc1ccncc1)CC2 | > 230
3 | COc1ccc2oc(N(C=O)[C@@H](Cc3ccccn3)c3ncc(-c4ccc(-n5ccnc5)cc4)n3C)cc2c1 | 151 to 153
4 | FC(F)(F)c1cc(CO[C@H]2CCCN(Cc3ccccc3)[C@H]2c2ccccc2)cc(C(F)(F)F)c1 | 89 to 93
5 | CCOC(=O)CCCCCCC1NC(=O)NC1=O (centres undefined) | 110
6 | CC[C@H](C)C(OCc1ccccc1)[C@H]1[C@H]([N+](=O)[O-])[C@H](c2ccccc2)N[C@@H]1C(=O)NCCCCCC(=O)O (some centres undefined) | 105 to 106
7 | CC1(COC2CC3C4CCC5=CC(=O)C=CC5(C)C4(F)C(O)CC3(C)C2(O)C(=O)CCl)CO1 (centres undefined) | 193 to 236
8 | CC1=NC(NC(=O)Nc2cccc(C)c2)C(=O)N(CC(=O)N2CCCCCC2)c2c(C)cccc21 (centres undefined) | 204
9 | COc1cc(C(=O)c2ccc([N+](=O)[O-])cc2)c(CC(=O)O)cc1Cl | 185 to 188
10 | C[C@H]1C[C@@](O)(c2cccc(Sc3ccc4c(c3)CCC(=O)N4)c2)CCO1 | 180 to 181
11 | CCCCC(NC(=O)C(CC(C)C)NC(=O)c1ccc2ccccc2c1)C(=O)CSCc1ccco1 (centres undefined) | 97 to 99
12 | Cn1cc(-c2ccc(Cl)c(C(F)(F)F)c2)c(=O)c(C(F)(F)F)c1 | 164 to 165
13 | COc1ccc2c(c1)CCC1CC(=O)N(c3ccccn3)N=C21 (centres undefined) | 194 to 196
14 | CCCCCCN(Cc1cccnc1)C(Nc1cc(C(C)(C)C)c(O)c(C(C)(C)C)c1)=C1C(=O)OC(C)(C)OC1=O | 134 to 136
15 | O=C(c1c(F)cccc1F)N1COCN(c2ccc(SC(F)(C(F)(F)F)C(F)(F)F)cc2F)C1=O | 85 to 86
16 | COc1cc(N)c(Cl)cc1C(=O)NC1CCN(CC2CCN(C(=O)c3ccccc3)CC2)CC1 | 114 to 116
17 | CCCCCCCCCCCCCCOc1ccc(C(=O)OC)o1 | 56 to 58
18 | CS(=O)c1ccc(COS(C)(=O)=O)cc1 (centres undefined) | 63 to 65
19 | Nc1c(C(=O)c2cccnc2N2CCOCC2)oc2ccc(Cl)cc12 | 95 to 97
20 | Cc1cc(-n2cncn2)c2cccc(OCc3c(Cl)ccc(S(=O)(=O)N4CCC[C@H]4C(=O)NCC4CCN(CCOCCO)CC4)c3Cl)c2n1 | 82
21 | COC(=O)c1nc2cc(F)ccc2c(O)c1C(=O)OC | 228
22 | CCOC(=O)CCc1ccc(CBr)cc1 | 132
23 | FC(F)(F)C1(c2cc(Cl)cc(Cl)c2)CC(c2ccc(Br)cc2)=NO1 (centres undefined) | 122 to 124

Row | Structure (SMILES) | melting point [°C]
24 | CCOC(=O)C1=C(COCc2nnn(CCNS(C)(=O)=O)n2)NC(C)=C(C(=O)OC)C1c1cccc(Cl)c1Cl (centres undefined) | 245 to 247
25 | CCOC(=O)C1=C(COCCNC(N)=S)NC(C)=C(C(=O)OC)C1c1cccc(Cl)c1Cl (centres undefined) | 198
26 | Cc1c(S(=O)(=O)N(C)C)c(=O)c2ccc(F)cc2n1C | 244 to 248
27 | C[C@@H](O)c1cc2cc(CN3CCOCC3)cc3c(=O)c(C(=O)NCc4ccc(Cl)cc4)cn1c23 | 75 to 79
28 | CC(=O)c1ccc(C(=O)CCl)s1 | 94 to 95
29 | CC(C)(O)CCCCCc1ccc(CCc2ccc(O)c(CO)c2)cc1 | 110 to 111
30 | O=C1C2=C(C=CCN2)CCc2ccc(F)cc21 | 78 to 81
31 | CCCCOc1cc(C(=O)O)cc(N)c1C(=O)c1ccccc1 | 202 to 204
32 | Cc1c(C(=O)c2cnn(C(C)(C)C)c2O)ccc(S(C)(=O)=O)c1-c1ccc(S(C)(=O)=O)cc1 | 187 to 188
33 | Oc1ccc2c(c1)CCCC(c1ccccc1)=C2c1ccc(OCCCCSCc2ccccn2)cc1 | 155
34 | CC(Oc1cccc(Cl)c1)c1ccnc2ncnn12 (centres undefined) | 124 to 126
35 | O=c1ccn(-c2cccc(C(F)(F)F)c2)nc1-c1c(F)cnn1-c1ccccc1 | 156 to 158
36 | FC(F)(F)c1cccnc1N1CCN(c2nc3ccc(Cl)cc3[nH]2)CC1 | 228 to 231
37 | COC(=O)[C@H](c1ccccc1Cl)N1CCc2sc(OC(=O)c3ccc([N+](=O)[O-])cc3)cc2C1 | 100 to 102
38 | O=C(O)COc1ccc(OCC(=O)O)c(NC(=O)c2ccc(OCCCCc3ccccc3)cc2)c1 | 211 to 214
39 | CCc1nc2c(N)nc3ccccc3c2n1CCS(C)(=O)=O | 222 to 225
40 | CC(C)CCn1c(=O)c(=NNc2ccccc2)c(=O)n(-c2ccccc2)c2ccccc21 | 143
41 | CCCCCc1ccc(CC(=O)c2ccc(O)cc2)cc1 | 112
42 | CCCCCCCCCCCCCCC[C@H]1O[C@@H]1C(=O)OC | 54 to 55
43 | O=C(NC=CC1CC2C=CC1C2)n1cc(F)c(=O)[nH]c1=O (centres undefined) | 130 to 132
44 | CCCCc1nc2ccccc2c(=O)n1Cc1ccc(-c2ccccc2-c2nnn[nH]2)cc1 | 180 to 182
45 | COCCOc1ccc(CCC(=O)NS(=O)(=O)c2ccc(F)cc2)c(Oc2ncc(C(F)(F)F)cc2Cl)c1 | 136 to 138
46 | Cc1c(C)c2c(c(C)c1O)SC(C)O2 (centres undefined) | 125 to 127

Row | Structure (SMILES) | melting point [°C]
47 | C/C(=C\c1ccc(Cc2cccnc2)cc1)C(=O)Oc1ccccc1 | 52 to 53
48 | O=C1C(F)N(c2ccc(Oc3ccccc3)cc2)C(=S)N1c1ccccc1 (centres undefined) | 126
49 | COc1ccc2[nH]c(S(=O)Cc3cc(N)c(Br)cn3)nc2c1 (centres undefined) | 130 to 132
50 | COc1ccc(C2=NN(C3CCN(S(=O)(=O)c4ccc(C)cc4)CC3)C(=O)[C@H]3CC=CC[C@@H]23)cc1Cl (relative stereo) | 198 to 199
51 | O=C(Nc1ccc(SC(F)(F)F)cc1)c1cc(Cl)c2ccccc2c1O | 172 to 175
52 | CN1CCN(c2nn(-c3ccc(Cl)cc3Cl)c3ccccc23)CC1 | 150 to 152
53 | COC(=O)C(=Cc1ccc2c(c1)CCO2)N=[N+]=[N-] | 77 to 80
54 | O=C1CN(Cc2ccc(COc3cccc4c3CN(C3CCC(=O)NC3=O)C4=O)cc2)CCN1 (centres undefined) | 245 to 247
55 | OCc1nc2cc(Br)cnc2[nH]1 | 230 to 233
56 | O=C1c2cc(C(=O)N3CCCCC3)ccc2-c2ccc(C(=O)N3CCCCC3)cc21 | 94.5 to 95.5
57 | CON(Cc1cccc(-c2ccc(Cl)cc2)c1)C(=O)c1cn(C)nc1C(F)F | 78 to 80
58 | CCOC(=O)c1cc2c(Br)c(Br)oc2nc1C(=O)OCC | 96 to 98
59 | CN1CNC(=S)N(c2ccc(F)cc2)C1 | 173 to 175
60 | CCCn1nc2c(N)nc3ccccc3c2c1CCNC(=O)OCC | 143 to 144
61 | O=[N+]([O-])c1c(NCCCO)cc(NCCCO)cc1NCCCO | 150
62 | COC(=O)c1ccc(OC(=O)c2ccccc2)cc1O | 103
63 | O=C(c1ccc(F)cc1)C1CC2CCN1CC2 (centres undefined) | 68 to 69
64 | CCNc1nc(C)c(-c2ccncc2)s1 | 129 to 131
65 | CC(C)Nc1nc(N)nc(-c2ccccc2)c1-c1ccc(=O)n(C(C)C)n1 | 234 to 236
66 | O=C1c2ccccc2C(=O)N1Cc1cnccn1 | 141 to 143
67 | NC(=O)c1[nH]c2ccccc2c1-c1ccc(NC(=O)Nc2ccccc2)cc1 | 232 to 234
68 | CN1C(=O)[C@H](NC(=O)CCc2ccco2)N=C(c2ccccc2)c2ccccc21 | 115 to 118
69 | COC(=O)CCn1c(C)c(Cn2ccnc2)c2c(CCC(=O)O)cccc21 | 136 to 138

— a melting point compilation (Tetko et al.; mined from patent text by program, amines drawn as free bases though some values may be those of a salt)
